These results are taken from patent US7368467B2, “Ion channel modulators” (Wyeth, priority 2004, dated 2008).

Experiment [1] has as its system calcium channels (e.g., Cav2.2 subfamily). Kind of experiment: Oocyte assay, calcium channel modulation in Xenopus oocyte heterologous expression system. Type of experiment: cell-based. The conditions noted are these: calcium channel (e.g., Cav2.2 subfamily). The protocol: Representative compounds of the formulae herein are screened for activity against calcium channel targets in an assay essentially as described in Neuron January 1997, 18(11): 153-166, Lin et. al.; J. Neurosci. Jul. 1, 2000, 20(13):4768-75, J. Pan and D. Lipsombe; and J. Neurosci., Aug. 15, 2001, 21(16):5944-5951, W. Xu and D. Lipscombe, using Xenopus oocyte heterologeous expression system. The assay is performed on various calcium channels (e.g., Cav2.2subfamily) whereby the modulation of the calcium channel is measured for each compound. Table 2 contains IC50's for representative compounds disclosed in the invention.

In experiment [2] the test system is calcium channel (e.g., L-type, N-type, etc.). Kind of experiment: HEK assay, whole-cell voltage clamp of calcium channel currents in transiently transfected HEK-293T/17 cells. Type of experiment: cell-based. The conditions noted are these: whole-cell patch clamp, holding potential −100 mV, steps to about +10 mV. The protocol:
HEK-293T/17 cells are transiently transfected in a similar manner as described in FuGENE 6 Package Insert Version 7, April 2002, Roche Applied Science, Indianapolis, Ind. The cells are plated at 2.5×10^5 cells in 2 mL in a 6-well plate in incubator for one night and achieve a 30˜40% confluence. In a small sterile tube, add sufficient serum-free medium as diluent for FuGENE Transfection Reagent (Roche Applied Science, Indianapolis, Ind.), to a total volume of 100 μL. Add 3 μL of FuGENE 6 Reagent directly into this medium. The mixture is tapped gently to mix. 2 μg of DNA solution (0.8-2.0 μg/μL) is added to the prediluted FuGENE 6 Reagent from above. The DNA/Fugene 6 mixture is gently pipeted to mix the contents and incubated for about 15 minutes at room temperature. The complex mixture is then added to the HEK-293T/17 cells, distributing it around the well, and swirled to ensure even dispersal. The cells are returned to the incubator for 24 hrs. The transfected cells are then replated at density 2.5×10^5 in a 35 mm dish with 5 glass coverslips and grow in low serum(1%) media for 24 hrs. Coverslips with isolated cells are then transferred into chamber and calcium channel (e.g., L-type, N-type, etc.) current or other currents for counter screening are recorded from the transiently transfected HEK-293T/1 7 cells.
The whole-cell voltage clamp configuration of the patch clamp technique is employed to evaluate voltage-dependent calcium currents essentially as described by Thompson and Wong (1991) J. Physiol., 439: 671-689. To record calcium channel (e.g., L-type, N-type, etc.) currents for evaluation of inhibitory potency of compounds (steady-state concentration-response analysis), five pulses of 20-30 ms voltage steps to about +10 mV (the peak of the current voltage relationship) are delivered at five Hz every 30 second from a holding potential at −100 mV. Compound evaluations were carried out essentially as described by Sah D W and Bean B P (1994) Mol Pharmacol. 45(1):84-92. Table 3 contains IC50's for representative compounds.

Usually IC50 stands for the concentration that inhibits the measured activity by half. As to `Cc1ccc(-n2c(-c3ccccc3)cnc2SCc2nc3ccccc3[nH]2)cc1` [Compound 2], the half-inhibitory concentration (IC50) in experiment [1] was 6.63 µM.
On the same count and under the same terms, the value for `Cc1ccc(-n2c(-c3ccc(F)cc3)cnc2SCc2nc3ccccc3[nH]2)cc1` [Compound 4] was 5.7 µM.
Consider `COc1ccc(OC)c(-c2cnc(SCc3nc4ccccc4[nH]3)n2-c2ccc(Cl)cc2)c1` [Compound 7], for which the half-maximal inhibitory concentration (IC50) in experiment [2] came to 0.793 µM.
On the same count and under the same terms, the value for `COc1ccccc1-c1cnc(SCc2cnc(C)s2)n1-c1ccc(Cl)cc1` [Compound 8] was 0.187 µM.
As for `Cc1ccc(F)cc1-c1cnc(SCc2nc3ccccc3[nH]2)n1-c1ccc(Cl)cc1` [Compound 13], the half-inhibitory concentration (IC50) in experiment [2] is 0.328 µM.
With `COc1ccc(-n2c(-c3ccc(F)cc3)cnc2SCC(=O)NCc2ccco2)cc1` [Compound 234], in experiment [1], the concentration for half-maximal inhibition (IC50) was 5.4 µM.
